Values quoted from earlier work, collected in patent US9260379B2 (Ocera Therapeutics, Inc., priority 2010, dated 2016).

Details: free acid

## O=C(O)Cc1ccccc1 [phenyl acetic acid]
  pKa: ~4.28
